Tests used:
NCI-H460 = assay: Growth inhibition of human NCI-H460 after 48 hrs by SRB assay; type: functional; conditions: NCI-H460, 48 h
DU-145 = assay: Growth inhibition of human DU145 after 48 hrs by SRB assay; type: functional; conditions: DU-145, 48 h
[1] = Inhibition of calf brain tubulin polymerization; parameters: species or system Bos taurus
SK-OV-3 = assay: Growth inhibition of human SK-OV-3 after 48 hrs by SRB assay; type: functional; conditions: SK-OV-3, 48 h

Row | Compound | GI50 (NCI-H460) | GI50 (DU-145) | IC50 [1] | GI50 (SK-OV-3)
1 | COc1ccc(C(=O)C2=CCCCc3c2cc(OC)c(OC)c3OC)cc1O | > 10000 nM | > 10000 nM | > 40000 nM | 
2 | COc1ccc(C(=O)C2=CCCc3c2cc(OC)c(OC)c3OC)c(O)c1O | 2800 nM | 3400 nM | > 40000 nM | 1400 nM
3 | COc1ccc2c(c1)CCCC=C2c1cc(OC)c(OC)c(OC)c1 | 51 nM | 27 nM | 1400 nM | 52 nM
4 | COc1ccc2c(c1O)CCCC(c1cc(OC)c(OC)c(OC)c1)=C2 | 1200 nM | 440 nM | > 40000 nM | 270 nM
5 | COc1ccc(C(=O)C2=CCCCc3c2cc(OC)c(OC)c3OC)c(O)c1O | > 10000 nM | > 10000 nM | > 40000 nM | 
6 | COc1ccc2c(c1)CCCC(c1cc(OC)c(OC)c(OC)c1)=C2 | 470 nM | 550 nM | > 40000 nM | 440 nM
7 | COc1ccc(C(=O)C2=CCCc3c2cc(OC)c(OC)c3OC)cc1O | 6000 nM | 3100 nM | 24000 nM | 
8 | COc1cc2c(cc1O)C(=O)C1c3cc(OC)c(OC)c(OC)c3CCC21 (stereo not given) | > 10000 nM | > 10000 nM | > 40000 nM | 
9 | COc1ccc(CC2CCCCc3c2cc(OC)c(OC)c3OC)c(O)c1O (stereo not given) | > 10000 nM | > 10000 nM | 7400 nM | 
10 | COc1ccc2c(c1O)CCCC=C2c1cc(OC)c(OC)c(OC)c1 | 0.028 nM | 0.0032 nM | 1700 nM | < 0.03 nM
11 | COc1ccc(/C=C\c2cc(OC)c(OC)c(OC)c2)cc1O [COMBRETASTATIN A4] | 2 nM | 2 nM |  | 0.13 nM
12 | COc1ccc(/C=C\c2cc(OC)c(OC)c(OC)c2)c(O)c1O [COMBRETASTATIN A-1] | 2200 nM | 510 nM |  | 
